According to the supplement of paper PMC11208160:

Assay: recombinant barcode read abundance after kanamycin selection (control-corrected) (log10(CPM+1)); higher = more efficient recombination; sequences stand for … in AGTGCAGAGAAAATCGGCCAGTTTTCTCTGCCTGCAGTCCGCATGCCGT…AGATTTATGCAGCGGACTGCCTTTCTCCCAAAGTGATAAACCGGACAGTATCATGGACCGGTTTTCCCGGTAATCCGTATTTGCAAGGTTGGTTTCACT; site = the 11-nt target
Method in brief: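 Targets were screened in pooled form in E. coli against IS621 bridge RNA target-binding loops. Recombination efficiency is based on barcode counts at recombinant junctions in counts per million, averaged and corrected for the control. Numbers are shown as log10(CPM+1), with duplicate plates on chloramphenicol/ampicillin LB agar (control) or chloramphenicol/ampicillin/kanamycin with 0.1 mM IPTG.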
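Further: IS621 recombinase and bridge RNA in Escherichia coli cells.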

Row | Sequence | recombinant barcode read abundance (log10)
1 | GTCGCGCCTTGGGTTCTAACCTGTTGCCT (site GTCGCGACTAG) | 0.221
2 | GTCGCGCCTTGGGTTCTAACCTGTTGCCT (site GTCGCGCCTAG) | 0.271
3 | GTCGCGCCTTGGGTTCTAACCTGTTGCCT (site GTCGCGGCTAG) | 0.219
4 | GTCGCGCCTTGGGTTCTAACCTGTTGCCT (site GTCGCGTCTAG) | 0.58
5 | GTCGGAACTTGGGTTCTAACCTGTTGCCT (site GTCGGAACTAG) | 1.73
6 | GTCGGAACTTGGGTTCTAACCTGTTGCCT (site GTCGGCACTAG) | 0.329
7 | GTCGGAACTTGGGTTCTAACCTGTTGCCT (site GTCGGGACTAG) | 0.174
8 | GTCGGAACTTGGGTTCTAACCTGTTGCCT (site GTCGGTACTAG) | 0.0137
9 | GTCGGTACTTGGGTTCTAACCTGTTGCCT (site GTCGGAACTAG) | 0.115
10 | GTCGGTACTTGGGTTCTAACCTGTTGCCT (site GTCGGCACTAG) | 0.0645
11 | GTCGGTACTTGGGTTCTAACCTGTTGCCT (site GTCGGGACTAG) | 0.0319
12 | GTCGGTACTTGGGTTCTAACCTGTTGCCT (site GTCGGTACTAG) | 0.952
13 | GTCGTCACTTGGGTTCTAACCTGTTGCCT (site GTCGTCACTAG) | 0.334
14 | GTCGTCACTTGGGTTCTAACCTGTTGCCT (site GTCGTCCCTAG) | 0.0716
15 | GTCGTCACTTGGGTTCTAACCTGTTGCCT (site GTCGTCGCTAG) | 0.15
16 | GTCGTCACTTGGGTTCTAACCTGTTGCCT (site GTCGTCTCTAG) | 0.0772
17 | GTCGTCCCTTGGGTTCTAACCTGTTGCCT (site GTCGTCACTAG) | 0.0509
18 | GTCGTCCCTTGGGTTCTAACCTGTTGCCT (site GTCGTCCCTAG) | 0.315
19 | GTCGTCCCTTGGGTTCTAACCTGTTGCCT (site GTCGTCGCTAG) | 0.0602
20 | GTCGTCCCTTGGGTTCTAACCTGTTGCCT (site GTCGTCTCTAG) | 0.0914
21 | GTCGTCTCTTGGGTTCTAACCTGTTGCCT (site GTCGTCACTAG) | 0.0143
22 | GTCGTCTCTTGGGTTCTAACCTGTTGCCT (site GTCGTCCCTAG) | 0.463

Row | Sequence | recombinant barcode read abundance (log10)
23 | GTCGTCTCTTGGGTTCTAACCTGTTGCCT (site GTCGTCGCTAG) | 0.136
24 | GTCGTCTCTTGGGTTCTAACCTGTTGCCT (site GTCGTCTCTAG) | 1.65
25 | GTCGTTACTTGGGTTCTAACCTGTTGCCT (site GTCGTTACTAG) | 0.339
26 | GTCGTTACTTGGGTTCTAACCTGTTGCCT (site TAGCAATCTTA) | 0.22
27 | GTCGTTCCTTGGGTTCTAACCTGTTGCCT (site GTAGTTCCTAG) | 0.535
28 | GTCGTTCCTTGGGTTCTAACCTGTTGCCT (site GTCGTTCCTAG) | 0.153
29 | GTCTAGGCTTGGGTTCTAACCTGTTGCTG (site GCCGAGGCTCA) | 0.242
30 | GTCTAGGCTTGGGTTCTAACCTGTTGCTG (site GTCTAGGCTCA) | 0.876
31 | GTCTATACTTGGGTTCTAACCTGTTGCCA (site GTCTATACTTG) | 0.571
32 | GTCTATACTTGGGTTCTAACCTGTTGCCA (site TTCTAGACTTG) | 0.0838
33 | GTCTATACTTGGGTTCTAACCTGTTGCCT (site GTATATACTAG) | 0.168
34 | GTCTATACTTGGGTTCTAACCTGTTGCCT (site GTCTATACTAG) | 0.987
35 | GTCTATACTTGGGTTCTAACCTGTTGCCT (site GTGTATACTAG) | 0.0645
36 | GTCTATACTTGGGTTCTAACCTGTTGCCT (site GTTTATACTAG) | 0.311
37 | GTCTATGCTTGGGTTCTAACCTGTTGCGT (site GTCTAAGCTAA) | 0.0746
38 | GTCTATGCTTGGGTTCTAACCTGTTGCGT (site GTCTATGCTAC) | 0.0203
39 | GTCTCCTCTTGGGTTCTAACCTGTTGCCT (site GTCACCTCTAG) | 0.0265
40 | GTCTCCTCTTGGGTTCTAACCTGTTGCCT (site GTCCCCTCTAG) | 2.26
41 | GTCTCCTCTTGGGTTCTAACCTGTTGCCT (site GTCGCCTCTAG) | 0.0306
42 | GTCTCCTCTTGGGTTCTAACCTGTTGCCT (site GTCTCCTCTAG) | 1.62
43 | GTCTCTACTTGGGTTCTAACCTGTTGCCT (site GCCTCTTCTAG) | 0.0271
44 | GTCTCTACTTGGGTTCTAACCTGTTGCCT (site GTCTCTACTAG) | 0.221

Row | Sequence | recombinant barcode read abundance (log10)
45 | GTGAACTCTTGGGTTCTAACCTGTTGCTG (site GTGAACTCTCA) | 2.33
46 | GTGAACTCTTGGGTTCTAACCTGTTGCTG (site GTGATCCCTCA) | 0.0703
47 | GTGACTGCTTGGGTTCTAACCTGTTGCGT (site CACTAGACTCG) | 0.0198
48 | GTGACTGCTTGGGTTCTAACCTGTTGCGT (site GTGACTGCTAC) | 1.46
49 | GTGAGGTCTTGGGTTCTAACCTGTTGCAT (site GTGAGGTCTAA) | 0.46
50 | GTGAGGTCTTGGGTTCTAACCTGTTGCAT (site GTGAGGTCTAC) | 0.709
51 | GTGAGGTCTTGGGTTCTAACCTGTTGCAT (site GTGAGGTCTAG) | 0.375
52 | GTGAGGTCTTGGGTTCTAACCTGTTGCAT (site GTGAGGTCTAT) | 2.71
53 | GTGAGGTCTTGGGTTCTAACCTGTTGCGT (site GTGAGGTCTAA) | 0.231
54 | GTGAGGTCTTGGGTTCTAACCTGTTGCGT (site GTGAGGTCTAC) | 2.08
55 | GTGAGGTCTTGGGTTCTAACCTGTTGCGT (site GTGAGGTCTAG) | 0.586
56 | GTGAGGTCTTGGGTTCTAACCTGTTGCGT (site GTGAGGTCTAT) | 1.69
57 | GTGCAAACTTGGGTTCTAACCTGTTGCCT (site GTGCAAACTAG) | 1.23
58 | GTGCAAACTTGGGTTCTAACCTGTTGCCT (site GTGCACACTTG) | 0.0968
59 | GTGCTTACTTGGGTTCTAACCTGTTGCCT (site GAGCTTACTAG) | 0.0771
60 | GTGCTTACTTGGGTTCTAACCTGTTGCCT (site GCGCTTACTAG) | 0.0397
61 | GTGCTTACTTGGGTTCTAACCTGTTGCCT (site GGGCTTACTAG) | 0.0436
62 | GTGCTTACTTGGGTTCTAACCTGTTGCCT (site GTGCTTACTAG) | 0.538
63 | GTGGCTTCTTGGGTTCTAACCTGTTGCCT (site GAGGCTTCTAG) | 0.128
64 | GTGGCTTCTTGGGTTCTAACCTGTTGCCT (site GCGGCTTCTAG) | 0.248
65 | GTGGCTTCTTGGGTTCTAACCTGTTGCCT (site GGGGCTTCTAG) | 0.132
66 | GTGGCTTCTTGGGTTCTAACCTGTTGCCT (site GTGGCTTCTAG) | 0.389

Row | Sequence | recombinant barcode read abundance (log10)
67 | GTGTACCCTTGGGTTCTAACCTGTTGCGG (site GTGTACCCTAC) | 1.94
68 | GTGTACCCTTGGGTTCTAACCTGTTGCGG (site GTGTACCCTCC) | 1.93
69 | GTGTACCCTTGGGTTCTAACCTGTTGCGG (site GTGTACCCTGC) | 0.161
70 | GTGTACCCTTGGGTTCTAACCTGTTGCGG (site GTGTACCCTTC) | 0.253
71 | GTGTAGTCTTGGGTTCTAACCTGTTGCCG (site GTGTAGGCTCT) | 0.254
72 | GTGTAGTCTTGGGTTCTAACCTGTTGCCG (site GTGTAGTCTCG) | 1.19
73 | GTGTCACCTTGGGTTCTAACCTGTTGCCT (site GTGTCAACTAG) | 0.205
74 | GTGTCACCTTGGGTTCTAACCTGTTGCCT (site GTGTCACCTAG) | 1.52
75 | GTGTCACCTTGGGTTCTAACCTGTTGCCT (site GTGTCAGCTAG) | 0.00534
76 | GTGTCACCTTGGGTTCTAACCTGTTGCCT (site GTGTCATCTAG) | 0.091
77 | GTGTCTCCTTGGGTTCTAACCTGTTGCCT (site ATGTCTCCTAG) | 0.233
78 | GTGTCTCCTTGGGTTCTAACCTGTTGCCT (site CTGTCTCCTAG) | 0.103
79 | GTGTCTCCTTGGGTTCTAACCTGTTGCCT (site GTGTCTCCTAG) | 0.962
80 | GTGTCTCCTTGGGTTCTAACCTGTTGCCT (site TTGTCTCCTAG) | 0.22
81 | GTGTGAGCTTGGGTTCTAACCTGTTGCCG (site GTACGAGCTCG) | 0.269
82 | GTGTGAGCTTGGGTTCTAACCTGTTGCCG (site GTGTGAGCTCG) | 1.74
83 | GTGTGTCCTTGGGTTCTAACCTGTTGCCT (site GTGTGTACTAG) | 0.0295
84 | GTGTGTCCTTGGGTTCTAACCTGTTGCCT (site GTGTGTCCTAG) | 1.31
85 | GTGTGTCCTTGGGTTCTAACCTGTTGCCT (site GTGTGTGCTAG) | 0.155
86 | GTGTGTCCTTGGGTTCTAACCTGTTGCCT (site GTGTGTTCTAG) | 0.108
